Series [1] is described as follows: Titration of cloprostenol sodium with calcium or zinc salts, cloprostenol in supernatant by HPLC. It counts as physicochemical. The procedure:
Water-insoluble salts of cloprostenol were investigated as a means of prolonging release of cloprostenol after administration. Solutions of cloprostenol sodium were titrated with calcium chloride, zinc chloride or zinc acetate solutions. The resulting mixtures were vortexed, left to stand overnight then observed for precipitation possibly due to formation of an insoluble salt. Samples with a visible precipitate were centrifuged at 15000 rpm for 5 min and the supernatant was then removed for analysis of cloprostenol by validated HPLC.

The nature of a further series: physchem. The class given is physicochemical. As to conditions: for solubility: water, water solubility. The procedure: Water-in-oil (w/o) emulsions of cloprostenol sodium were investigated for use as sustained release compositions of cloprostenol. […] In aqueous solution cloprostenol sodium micellises at concentrations around 5-10 mg/ml. The minimum quantity of water to dissolve a 3 mg dose of cloprostenol (as the sodium salt) is around 0.1 ml. Accordingly, a target volume of 2 ml of water-in-oil emulsion requires a minimum proportion of around 5% water to incorporate a 3 mg dose of cloprostenol.

The conditions of series [2]: literature; cited from earlier work.
A short description of series [3]: Chemical stability of cloprostenol in ethanol and Transcutol. The settings on record: 40° C., 4 days, HPLC. The class given is physicochemical. The procedure: The chemical stability of cloprostenol was tested in ethanol and Transcutol. A cloprostenol solution (1 mg/ml) was prepared in each solvent and stored in at 40° C. for 4 days. The solutions were then removed and injected into HPLC for cloprostenol quantification and the chromatogram inspected for the formation of new (degradation) peaks. Cloprostenol in solution in ethanol and Transcutol at 40° C. was stable for the 4 days tested. […] There were no degradation peaks in the chromatograms.

Series [4] in a line: Authors' study / animal trial: half-life from terminal slope of plasma concentration versus time profile. It counts as in vivo. The settings on record: cattle, intramuscular. The protocol: Literature has reported a half-life for cloprostenol of around 90 minutes, with a maximum concentration reached at around 10 to 20 minutes after administration.
The inventors have also used various models to describe the absorption kinetics of cloprostenol. The most recent model was to describe the release from SAIB formulations as occurring as a burst of some percentage of the dose followed by a rate of release proportional to the square root of time. In an animal trial, the inventors calculated the terminal slope of the plasma concentration versus time profile. If absorption is very rapid—ie. as from standard cloprostenol injection, Ovuprost™, this terminal slope is related to the elimination half-life of the cloprostenol. The inventors found this half-life to be 1 hour. The literature reports the elimination half-life of cloprostenol to be 1.5-3 hours. If absorption is slow, the terminal slope relates to the absorption rate of the cloprostenol from the injection.
In cattle, the conventional intramuscular injected dose of natural PGF2α is 25 mg whereas the intramuscular injected dose of cloprostenol in 0.5 mg. PGF2α has a half-life of about 8-10 minutes whereas the cloprostenol half-life is from around 1 hour as determined by the authors' study and reported elsewhere as 1.5-3 hours.

Data on three molecules can be found in US20260263482A1, “COMPOSITION AND METHOD FOR INDUCING LUTEOLYSIS” (WELFARE CONCEPTS LIMITED, priority 2023, published 2026).

Where two headings read alike, the source gives them in different places.

Regarding `O=C([O-])CCCC=CCC1C(O)CC(O)C1C=CC(O)COc1cccc(Cl)c1.O=C([O-])CCCC=CCC1C(O)CC(O)C1C=CC(O)COc1cccc(Cl)c1.[Ca+2]` (stereo not drawn) [calcium cloprostenol], in series [1] (titration with calcium chloride, mixtures remained apparently clear), the “solubility of the calcium salt” value is “good solubility”.
As usually defined, the solubility is the dissolved amount per volume that the medium holds. Turning to `O=C(O)CCC/C=C\CC1C(O)CC(O)C1/C=C/C(O)COc1cccc(Cl)c1` (stereo not drawn) [cloprostenol sodium], in “physchem”, the “concentration at which it micellises in aqueous solution” value was 5000 to 10000 µg/mL and the solubility is above 10 mg/mL. In “physchem” (estimated), the solubility was around 35 mg/mL.
In general, half-life refers to the time needed for the level to fall by half in the phase considered. `O=C(O)CCC/C=C\CC1C(O)CC(O)C1/C=C/C(O)COc1cccc(Cl)c1` (stereo not drawn) [cloprostenol]: the “elimination half-life of cloprostenol” value in series [2] is 1.5 to 3 h. Further, in series [2], the half-life for cloprostenol entry was “around 90 minutes”. Moreover, the measured drug content in series [3] (1 mg/ml in Transcutol) is on record as 102%; in series [3] (1 mg/ml in ethanol), 101%. The “cloprostenol still contained in supernatant at best yield of precipitate” value in series [1] (zinc acetate) was “around 50%”; in series [1] (zinc chloride as counter cation), “around 74%”. Further, the half-life in series [4] (Holstein, 0.5 mg, very rapid absorption, standard cloprostenol injection, read-out: half-life (terminal slope, elimination) (converted)) is around 1 h; in series [4] (0.5 mg cloprostenol as the sodium salt in a fast-release aqueous composition, read-out: estimated half-life of cloprostenol in plasma) it was 0.25 to 1 h.
